Results from patent US20250376445A1, “COMPOUNDS AND METHODS FOR YAP/TEAD MODULATION AND INDICATIONS THEREFOR” (OPNA BIO SA, priority 2023, published 2025).

Tested on: TEAD-dependent transcription
Assay: TEAD-dependent transcription cell-based reporter assay (MSTO-211H+12XGTIIC luciferase)
Set-up: species or system human
Settings: Homo sapiens; MSTO-211H+12XGTIIC reporter cells, 24 hours compound incubation, luminescence normalized to viability; read-out: MSTO-211H GMean IC50 (uM) Cell Assay Reporter Cell Variant: TEAD
Excerpt: The human mesothelioma cell line MSTO-211H was stably transfected with a pGL4.21 plasmid containing a synthetic promoter with 12 copies of the GTIIC TEAD response element that drives the expression of a luciferase reporter gene^1 using Lipofectamine transfection reagent (Thermo Fisher). Transfected cells were selected using puromycin and single cell clones expressing this construct (referred to as MSTO-211H+12XGTIIC) were generated by limiting dilution. MSTO-211H cells was characterized by genetic alterations in key components of the Hippo pathway^2, resulting in up-regulation of YAP/TEAD-mediated transcription. […] To evaluate TEAD inhibitors, the MSTO-211H+12XGTIIC cell line was seeded in a 96-well plate in 50 μL of culture media at 1×10^4 cells per well and incubated at 37° C. overnight. Serial dilutions of compounds (in total volume of 50 μL of culture media) were added to the cells and incubated at 37° C. for 24 hours. Each plate included cells treated with DMSO as high controls and cells treated with 20 μM of the reference compound K-975 (a known TEAD inhibitor)^3 as low controls. Cell viability was assayed by the addition of 25 μL of CellTiter-Fluor reagent (Promega) followed by a 30-minute incubation at 37° C. and quantification of the fluorescence signal (Ex400/Em505). Subsequently, luciferase expression was assayed by the addition of 25 μL of ONE-Glo reagent (Promega) followed by a 10-minute incubation at room temperature and quantification of the luminescence signal. The luminescence signal was normalized to the fluorescence signal to correct for any loss in cell viability over the 24-hour compound incubation period. The percentage of inhibition of normalized luminescence signal, indicative of compound-mediated inhibition of TEAD-dependent transcription, at individual compound concentrations relative to high and low controls was calculated. The data were analyzed by using nonlinear regression to generate IC50 values for individual compounds.

SMILES | IC50 [µM]
O=C(c1cccc2sc(C(F)(F)F)nc12)N1CCc2c(cccc2C(F)c2ccc(C(F)(F)F)cc2)C1 (centres unmarked) [O-0070, (5-(fluoro(4-(trifluoromethyl)phenyl)methyl)-3,4-dihydroisoquinolin-2(1H)-yl)(2-(trifluoromethyl)benzo[d]thiazol-4-yl)methanone] | 0.001 to 10
O=C(c1ccc(C(F)(F)F)cc1)c1cccc2c1CCN(C(=O)Cc1ncc[nH]1)C2 [O-0071, 2-(1H-imidazol-2-yl)-1-(5-(4-(trifluoromethyl)benzoyl)-3,4-dihydroisoquinolin-2(1H)-yl)ethan-1-one] | 0.001 to 10
O=C(c1ccc(C(F)(F)F)cc1)c1cccc2c1CCN(C(=O)c1ncc(C(F)(F)F)[nH]1)C2 [O-0072, (5-(trifluoromethyl)-1H-imidazol-2-yl)(5-(4-(trifluoromethyl)benzoyl)-3,4-dihydroisoquinolin-2(1H)-yl)methanone] | 0.001 to 10
O=C(c1ccc(C(F)(F)F)cc1)c1cccc2c1CCN(C(=O)c1ccc3nc(C(F)(F)F)[nH]c3c1)C2 [O-0073, (2-(trifluoromethyl)-1H-benzo[d]imidazol-6-yl)(5-(4-(trifluoromethyl)benzoyl)-3,4-dihydroisoquinolin-2(1H)-yl)methanone] | 0.001 to 10
O=C(c1ccc(C(F)(F)F)cc1)c1cccc2c1CCN(C(=O)c1ccc3nc[nH]c3c1)C2 [O-0074, (2-(1H-benzo[d]imidazole-6-carbonyl)-1,2,3,4-tetrahydroisoquinolin-5-yl)(4-(trifluoromethyl)phenyl)methanone] | 0.001 to 10
O=C(c1ccc(C(F)(F)F)cc1)c1cccc2c1CCN(C(=O)c1ccc3[nH]ccc3c1)C2 [O-0075, (2-(1H-indole-5-carbonyl)-1,2,3,4-tetrahydroisoquinolin-5-yl)(4-(trifluoromethyl)phenyl)methanone] | 0.001 to 10
O=C(c1ccc(C(F)(F)F)cc1)c1cccc2c1CCN(C(=O)Cc1cscn1)C2 [O-0076, 2-(thiazol-4-yl)-1-(5-(4-(trifluoromethyl)benzoyl)-3,4-dihydroisoquinolin-2(1H)-yl)ethan-1-one] | 0.001 to 10
CS(=O)(=O)CCC(=O)N1CCc2c(cccc2C(F)c2ccc(C(F)(F)F)cc2)C1 (centres unmarked) [O-0077, 1-(5-(fluoro(4-(trifluoromethyl)phenyl)methyl)-3,4-dihydroisoquinolin-2(1H)-yl)-3-(methylsulfonyl)propan-1-one] | 0.001 to 10
COC(c1ccc(C(F)(F)F)cc1)c1cccc2c1CCN(C(=O)CCS(C)(=O)=O)C2 (centres unmarked) [O-0078, 1-(5-(methoxy(4-(trifluoromethyl)phenyl)methyl)-3,4-dihydroisoquinolin-2(1H)-yl)-3-(methylsulfonyl)propan-1-one] | 0.001 to 10
O=C(Cc1cscn1)N1CCc2c(Cc3ccc(C(F)(F)F)cc3)cccc2C1 [O-0079, 2-(thiazol-4-yl)-1-(5-(4-(trifluoromethyl)benzyl)-3,4-dihydroisoquinolin-2(1H)-yl)ethan-1-one] | 0.001 to 10
O=C(Cc1c[nH]cn1)N1CCc2c(Cc3ccc(C(F)(F)F)cc3)cccc2C1 [O-0080, 2-(1H-imidazol-4-yl)-1-(5-(4-(trifluoromethyl)benzyl)-3,4-dihydroisoquinolin-2(1H)-yl)ethan-1-one] | 0.001 to 10
CS(=O)(=O)CCC(=O)N1CCc2c(cccc2C(=O)c2ccc(C(F)(F)F)cc2)C1 [O-0081, 3-(methylsulfonyl)-1-(5-(4-(trifluoromethyl)benzoyl)-3,4-dihydroisoquinolin-2(1H)-yl)propan-1-one] | 0.001 to 10
CS(=O)(=O)CCC(=O)N1CCc2c(cccc2C(O)c2ccc(C(F)(F)F)cc2)C1 (centres unmarked) [O-0082, 1-(5-(hydroxy(4-(trifluoromethyl)phenyl)methyl)-3,4-dihydroisoquinolin-2(1H)-yl)-3-(methylsulfonyl)propan-1-one] | 0.001 to 10
C=CC(=O)N1CCc2cc(-c3ccc(C(F)(F)F)cc3)ccc2C1 [O-0110, 1-(6-(4-(trifluoromethyl)phenyl)-3,4-dihydroisoquinolin-2(1H)-yl)prop-2-en-1-one] | 0.001 to 10
C=CS(=O)(=O)N1CCc2cc(-c3ccc(C(F)(F)F)cc3)ccc2C1 [O-0111, 6-(4-(trifluoromethyl)phenyl)-2-(vinylsulfonyl)-1,2,3,4-tetrahydroisoquinoline] | 0.001 to 10
C=CC(=O)N1CCc2ccc(-c3ccc(C(F)(F)F)cc3)cc2C1 [O-0113, 1-(7-(4-(trifluoromethyl)phenyl)-3,4-dihydroisoquinolin-2(1H)-yl)prop-2-en-1-one] | 0.001 to 10

SMILES | IC50 [µM]
C=CS(=O)(=O)N1CCc2ccc(-c3ccc(C(F)(F)F)cc3)cc2C1 [O-0114, 7-(4-(trifluoromethyl)phenyl)-2-(vinylsulfonyl)-1,2,3,4-tetrahydroisoquinoline] | 0.001 to 10
C=CC(=O)N1CCc2c(cccc2-c2ccc(C(F)(F)F)cc2)C1 [O-0116, 1-(5-(4-(trifluoromethyl)phenyl)-3,4-dihydroisoquinolin-2(1H)-yl)prop-2-en-1-one] | 0.001 to 10
C=CS(=O)(=O)N1CCc2c(cccc2-c2ccc(C(F)(F)F)cc2)C1 [O-0117, 5-(4-(trifluoromethyl)phenyl)-2-(vinylsulfonyl)-1,2,3,4-tetrahydroisoquinoline] | 0.001 to 10
O=C(CCS(=O)(=O)C(F)(F)F)N1CCc2cc(-c3ccc(C(F)(F)F)cc3)ccc2C1 [O-0128, 1-(6-(4-(trifluoromethyl)phenyl)-3,4-dihydroisoquinolin-2(1H)-yl)-3-((trifluoromethyl)sulfonyl)propan-1-one] | 0.001 to 10
O=C(CCS(=O)(=O)C(F)(F)F)N1CCc2cc(-c3ccc(C(F)(F)F)c(F)c3)ccc2C1 [O-0130, 1-(6-(3-fluoro-4-(trifluoromethyl)phenyl)-3,4-dihydroisoquinolin-2(1H)-yl)-3-((trifluoromethyl)sulfonyl)propan-1-one] | 0.001 to 10
C[C@@H](Nc1ccccn1)C(=O)N1CCc2c(cccc2-c2ccc(C(F)(F)F)cc2)C1 [O-0131, (R)-2-(pyridin-2-ylamino)-1-(5-(4-(trifluoromethyl)phenyl)-3,4-dihydroisoquinolin-2(1H)-yl)propan-1-one] | 0.001 to 10
C[C@@H](NC(=O)c1cccc(N)n1)C(=O)N1CCc2c(cccc2-c2ccc(C(F)(F)F)cc2)C1 [O-0132, (R)-6-amino-N-(1-oxo-1-(5-(4-(trifluoromethyl)phenyl)-3,4-dihydroisoquinolin-2(1H)-yl)propan-2-yl)picolinamide] | 0.001 to 10
C[C@@H](NC(=O)c1cccc(N)n1)C(=O)N1CCc2ccc(-c3ccc(C(F)(F)F)cc3)cc2C1 [O-0133, (R)-6-amino-N-(1-oxo-(7-(4-(trifluoromethyl)phenyl)-3,4-dihydroisoquinolin-2(1H)-yl)propan-2-yl)picolinamide] | 0.001 to 10
CC(C)C[C@@H](NS(C)(=O)=O)C(=O)N1CCc2c(cccc2-c2ccc(C(F)(F)F)cc2)C1 [O-0139, (R)-N-(4-methyl-1-oxo-1-(5-(4-(trifluoromethyl)phenyl)-3,4-dihydroisoquinolin-2(1H)-yl)pentan-2-yl)methanesulfonamide] | 0.001 to 10
C[C@@H](Nc1ccccn1)C(=O)N1CCc2cc(-c3ccc(C(F)(F)F)cc3)ccc2C1 [O-0145, (R)-2-(pyridin-2-ylamino)-1-(6-(4-(trifluoromethyl)phenyl)-3,4-dihydroisoquinolin-2(1H)-yl)propan-1-one] | 0.001 to 10
C[C@@H](NS(C)(=O)=O)C(=O)N1CCc2cc(-c3ccc(C(F)(F)F)cc3)ccc2C1 [O-0161, (R)-N-(1-oxo-1-(6-(4-(trifluoromethyl)phenyl)-3,4-dihydroisoquinolin-2(1H)-yl)propan-2-yl)methanesulfonamide] | 0.001 to 10
C[C@@H](NC(=O)c1ccccn1)C(=O)N1CCc2ccc(-c3ccc(C(F)(F)F)cc3)cc2C1 [O-0177, (R)-N-(1-oxo-1-(7-(4-(trifluoromethyl)phenyl)-3,4-dihydroisoquinolin-2(1H)-yl)propan-2-yl)picolinamide] | 0.001 to 10
CC(=O)N[C@H](C)C(=O)N1CCc2ccc(-c3ccc(C(F)(F)F)cc3)cc2C1 [O-0182, (R)-N-(1-oxo-1-(7-(4-(trifluoromethyl)phenyl)-3,4-dihydroisoquinolin-2(1H)-yl)propan-2-yl)acetamide] | 0.001 to 10
C[C@@H](NS(C)(=O)=O)C(=O)N1CCc2c(cccc2-c2ccc(C(F)(F)F)cc2)C1 [O-0185, (R)-N-(1-oxo-1-(5-(4-(trifluoromethyl)phenyl)-3,4-dihydroisoquinolin-2(1H)-yl)propan-2-yl)methanesulfonamide] | 0.001 to 10
C[C@@H](N)C(=O)N1CCc2cc(-c3ccc(C(F)(F)F)cc3)ccc2C1 [O-0186, (R)-2-amino-1-(6-(4-(trifluoromethyl)phenyl)-3,4-dihydroisoquinolin-2(1H)-yl)propan-1-one] | 0.001 to 10
C[C@@H](N)C(=O)N1CCc2ccc(-c3ccc(C(F)(F)F)cc3)cc2C1 [O-0187, (R)-2-amino-1-(7-(4-(trifluoromethyl)phenyl)-3,4-dihydroisoquinolin-2(1H)-yl)propan-1-one] | 0.001 to 10
